Starred links: 1 amine or outer side, 2 acyl side, 3 side chain; linkers in the order of their positions; H or OH if unused. Positions of bridges follow the written chain, without caps; N, C: chain ends. Non-standard residues stand in square brackets, D forms with d. Residues, ends and D or L forms follow the SMILES beside them. Groups on a side chain read outwards from the residue. No end group written: not given here. *: point of attachment. KCOmeglumine = N6-(methyl-((2S,3R,4R,5R)-2,3,4,5,6-pentahydroxyhexyl)carbamoyl)-L-lysine, CN(C[C@H](O)[C@@H](O)[C@H](O)[C@H](O)CO)C(=O)NCCCC[C@H](N[*:1])C(=O)[*:2]; KCOpipzaa = N6-(4-(carboxymethyl)piperazine-1-carbonyl)-L-lysine, O=C(NCCCC[C@H](N[*:1])C(=O)[*:2])N1CCN(CC(=O)[*:3])CC1; Meglumine = CN(C[C@H](O)[C@@H](O)[C@H](O)[C@H](O)CO)*; Trp(7-aza) = N[C@@H](Cc1c[nH]c2ncccc12)C(=O)O; Piperazinyl(4-CH2COOH) = O=C(O)CN1CCN(*)CC1; 1Nal = N[C@@H](Cc1cccc2ccccc12)C(=O)O; Gly(NCH2CH2Ph) = O=C(O)CNCCc1ccccc1; 4Pal = N[C@@H](Cc1ccncc1)C(=O)O; CO = O=C([*:1])[*:2]
Columns and labels:
[1] = biological target: T1, recombinant human TGF-β1 (Homo sapiens, UniProt P01137); assay: SBE reporter assay in SBE reporter-HEK293 cells, TGF-β1 stimulation; type: cell-based; conditions: TGF-β1 0.13 nM, 18 hours; for inhibition at 75 pM: peptide 0.075 nM; for inhibition at 0.00075 µM: peptide 0.75 nM; for inhibition at 0.0075 µM: peptide 7.5 nM; for inhibition at 0.075 µM: peptide 75.0 nM; for inhibition at 62 pM: peptide 0.062 nM; for inhibition at 0.000185 µM: peptide 0.185 nM; for inhibition at 0.00056 µM: peptide 0.56 nM; for inhibition at 0.0017 µM: peptide 1.7 nM; for inhibition at 0.005 µM: peptide 5.0 nM; for inhibition at 0.015 µM: peptide 15.0 nM
T1 construct: purchased R&D systems
T1 sequence (P01137 279-390 limits assumed): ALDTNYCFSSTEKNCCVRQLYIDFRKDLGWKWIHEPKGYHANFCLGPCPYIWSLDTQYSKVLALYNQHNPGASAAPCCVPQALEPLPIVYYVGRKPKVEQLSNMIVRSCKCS
Excerpt: The inhibitory activity of the peptide can be calculated without limitation while the maximum signal induced by TGF-β is set to 0% inhibition and no stimulation is set to 100% inhibition. When the peptide is used at an appropriate concentration, for example, at the optimal concentration, the inhibitory activity is not limited but the inhibition is 5% or more, 10% or more, 20% or more, 30% or more, 40% or more, 50% or more, 60% or more, 70% or more, 80% or more, or 90% or more.
In this Example, the TGF-β1 inhibitory activity of the peptide of the present invention consisting of the amino acid sequence set forth in SEQ ID NOs: 2-33 synthesized in Examples 1 to 5 and 7 was evaluated by an SBE reporter assay using the SBE reporter-HEK293 cell system (BP Bioscience) as follows.
SBE reporter-HEK293 cells were cultured in E-MEM (Wako) containing 10% FBS (Sigma). The cells were detached using Accutase (Innovative Cell Technologies), suspended in E-MEM containing 0.5% FBS, seeded onto a 96-well plate(s) at a concentration of 45,000 cells per well, and cultured overnight. The next day, the peptide was added and allowed to stand for 20 min, and recombinant human TGF-β1 (R&D systems) or recombinant human TGF-β2 (R&D systems) was then added at 0.13 nM and cultured for 18 hours.
Thereafter, luciferase assay ONE-Glo reagent was added to each well and the plate was shaken for 5 min. A SpectraMax Paradigm multimode microplate reader (Molecular Devices) was then used for signal detection. The obtained signals were analyzed by GraphPad Prism. The inhibitory activity of the peptide was calculated while the maximum signal induced by TGF-β was set to 0% inhibition and no stimulation was set to 100% inhibition.

[2] = biological target: T2, recombinant human TGF-β1 (R&D systems) (human, UniProt P01137 279-390); assay: cell-based or functional assay
T2 sequence (P01137 279-390 limits assumed): as above

[3] = biological target: T2, recombinant human TGF-β1 (R&D systems); assay: cell-based or functional assay; remark: listed apart in the source

Row | Molecule | inhibition at 75 pM [1] | inhibition at 0.00075 µM [1] | inhibition at 0.0075 µM [1] | inhibition at 0.075 µM [1] | inhibition at 62 pM [1] | inhibition at 0.000185 µM [1] | inhibition at 0.00056 µM [1] | inhibition at 0.0017 µM [1] | inhibition at 0.005 µM [1] | inhibition at 0.015 µM [1] | also measured
1 | CC(C)[C@@H]1NC(=O)CN(CCc2ccccc2)C(=O)[C@H](CC(=O)O)NC(=O)[C@H](CC(=O)O)NC(=O)[C@H](Cc2ccncc2)NC(=O)[C@H](C(C)C)NC(=O)[C@H](CC(N)=O)NC(=O)[C@H](C(C)C)NC(=O)[C@H](C(C)C)NC(=O)[C@H](Cc2cccc3ccccc23)NC(=O)[C@H](Cc2ccccc2)NC(=O)CSC[C@@H](C(=O)NCC(N)=O)NC(=O)[C@H](CCCCNC(=O)N(C)C[C@H](O)[C@@H](O)[C@H](O)[C@H](O)CO)NC(=O)[C@H](Cc2c[nH]cn2)NC(=O)[C@H](Cc2ccc(O)cc2)NC(=O)[C@H](Cc2cccc3ccccc23)NC1=O [TGFb1_016] ({CH2CO}-F[1Nal]VVNV[4Pal]DD[Gly(NCH2CH2Ph)]V[1Nal]YHK([CO-Meglumine])CG-NH2; thioether N-16) | 6.1% | 61% | 97.6% | 100% | – | – | – | – | – | – | –
2 | CC(C)[C@@H]1NC(=O)CN(CCc2ccccc2)C(=O)[C@H](CCCCNC(=O)N2CCN(CC(=O)O)CC2)NC(=O)[C@H](CC(=O)O)NC(=O)[C@H](Cc2ccncc2)NC(=O)[C@H](C(C)C)NC(=O)[C@H](CC(N)=O)NC(=O)[C@H](C(C)C)NC(=O)[C@H](C(C)C)NC(=O)[C@H](Cc2c[nH]c3ncccc23)NC(=O)[C@H](Cc2ccccc2)NC(=O)CSC[C@@H](C(=O)NCC(N)=O)NC(=O)[C@H](C(C)C)NC(=O)[C@H](Cc2c[nH]cn2)NC(=O)[C@H](Cc2ccc(O)cc2)NC(=O)[C@H](Cc2cccc3ccccc23)NC1=O [TGFb1_017] ({CH2CO}-F[Trp(7-aza)]VVNV[4Pal]DK([CO-Piperazinyl(4-CH2COOH)])[Gly(NCH2CH2Ph)]V[1Nal]YHVCG-NH2; thioether N-16) | 21.7% | 60.2% | 97.2% | 100% | – | – | – | – | – | – | –
3 | CC(C)[C@@H]1NC(=O)CN(CCc2ccccc2)C(=O)[C@H](CCCCNC(=O)N(C)C[C@H](O)[C@@H](O)[C@H](O)[C@H](O)CO)NC(=O)[C@H](CC(=O)O)NC(=O)[C@H](Cc2ccncc2)NC(=O)[C@H](C(C)C)NC(=O)[C@H](CC(N)=O)NC(=O)[C@H](C(C)C)NC(=O)[C@H](C(C)C)NC(=O)[C@H](Cc2c[nH]c3ncccc23)NC(=O)[C@H](Cc2ccccc2)NC(=O)CSC[C@@H](C(=O)NCC(N)=O)NC(=O)[C@H](C(C)C)NC(=O)[C@H](Cc2c[nH]cn2)NC(=O)[C@H](Cc2ccc(O)cc2)NC(=O)[C@H](Cc2cccc3ccccc23)NC1=O [TGFb1_018] ({CH2CO}-F[Trp(7-aza)]VVNV[4Pal]DK([CO-Meglumine])[Gly(NCH2CH2Ph)]V[1Nal]YHVCG-NH2; thioether N-16) | 22.2% | 61% | 97.6% | 99.9% | – | – | – | – | – | – | –
4 | CC(C)[C@@H]1NC(=O)CN(CCc2ccccc2)C(=O)[C@H](CCC(=O)O)NC(=O)[C@H](CC(=O)O)NC(=O)[C@H](Cc2ccncc2)NC(=O)[C@H](C(C)C)NC(=O)[C@H](CC(N)=O)NC(=O)[C@H](C(C)C)NC(=O)[C@H](C(C)C)NC(=O)[C@H](Cc2cccc3ccccc23)NC(=O)[C@H](Cc2ccccc2)NC(=O)CSC[C@@H](C(=O)NCC(N)=O)NC(=O)[C@H](CCCCNC(=O)N2CCN(CC(=O)O)CC2)NC(=O)[C@H](Cc2c[nH]cn2)NC(=O)[C@H](Cc2ccc(O)cc2)NC(=O)[C@H](Cc2cccc3ccccc23)NC1=O [TGFb1_021] ({CH2CO}-F[1Nal]VVNV[4Pal]DE[Gly(NCH2CH2Ph)]V[1Nal]YHK([CO-Piperazinyl(4-CH2COOH)])CG-NH2; thioether N-16) | – | – | – | – | 10.2% | 26.9% | 58.9% | 87.8% | 97.1% | 98.8% | –
5 | CC(C)[C@@H]1NC(=O)CN(CCc2ccccc2)C(=O)[C@H](CC(=O)O)NC(=O)[C@H](CC(=O)O)NC(=O)[C@H](Cc2ccncc2)NC(=O)[C@H](C(C)C)NC(=O)[C@H](CC(N)=O)NC(=O)[C@H](C(C)C)NC(=O)[C@H](C(C)C)NC(=O)[C@H](Cc2cccc3ccccc23)NC(=O)[C@H](Cc2ccccc2)NC(=O)CSC[C@@H](C(=O)NCC(N)=O)NC(=O)[C@H](CCC(=O)O)NC(=O)[C@H](Cc2c[nH]cn2)NC(=O)[C@H](Cc2ccc(O)cc2)NC(=O)[C@H](Cc2cccc3ccccc23)NC1=O [TGFb1_027] ({CH2CO}-F[1Nal]VVNV[4Pal]DD[Gly(NCH2CH2Ph)]V[1Nal]YHECG-NH2; thioether N-16) | – | – | – | – | 2.53% | 9.14% | 28.4% | 59.4% | 84.9% | 95.5% | –
6 | CC(C)[C@@H]1NC(=O)CN(CCc2ccccc2)C(=O)[C@H](CC(=O)O)NC(=O)[C@H](CC(=O)O)NC(=O)[C@H](Cc2ccncc2)NC(=O)[C@H](C(C)C)NC(=O)[C@H](CC(N)=O)NC(=O)[C@H](CCCCNC(=O)N(C)C[C@H](O)[C@@H](O)[C@H](O)[C@H](O)CO)NC(=O)[C@H](C(C)C)NC(=O)[C@H](Cc2cccc3ccccc23)NC(=O)[C@H](Cc2ccccc2)NC(=O)CSC[C@@H](C(=O)NCC(N)=O)NC(=O)[C@H](CCC(=O)O)NC(=O)[C@H](Cc2c[nH]cn2)NC(=O)[C@H](Cc2ccc(O)cc2)NC(=O)[C@H](Cc2cccc3ccccc23)NC1=O [TGFb1_028] ({CH2CO}-F[1Nal]VK([CO-Meglumine])NV[4Pal]DD[Gly(NCH2CH2Ph)]V[1Nal]YHECG-NH2; thioether N-16) | – | – | – | – | 0.94% | 6.17% | 20.4% | 47.6% | 73.9% | 91.7% | –
7 | CC(C)[C@@H]1NC(=O)CN(CCc2ccccc2)C(=O)[C@H](CCC(=O)O)NC(=O)[C@H](CC(=O)O)NC(=O)[C@H](Cc2ccncc2)NC(=O)[C@H](C(C)C)NC(=O)[C@H](CC(N)=O)NC(=O)[C@H](CCCCNC(=O)N(C)C[C@H](O)[C@@H](O)[C@H](O)[C@H](O)CO)NC(=O)[C@H](C(C)C)NC(=O)[C@H](Cc2cccc3ccccc23)NC(=O)[C@H](Cc2ccccc2)NC(=O)CSC[C@@H](C(=O)NCC(N)=O)NC(=O)[C@H](CCC(=O)O)NC(=O)[C@H](Cc2c[nH]cn2)NC(=O)[C@H](Cc2ccc(O)cc2)NC(=O)[C@H](Cc2cccc3ccccc23)NC1=O [TGFb1_029] ({CH2CO}-F[1Nal]VK([CO-Meglumine])NV[4Pal]DE[Gly(NCH2CH2Ph)]V[1Nal]YHECG-NH2; thioether N-16) | – | – | – | – | 12% | 16.9% | 32.4% | 63.7% | 85.8% | 96.8% | –
8 | {CH2CO}-F[1Nal]VVNV[4Pal]D[KCOmeglumine][Gly(NCH2CH2Ph)]V[1Nal]YH[KCOpipzaa]CG-NH2 (thioether N-16; SMILES CC(C)[C@@H]1NC(=O)CN(CCc2ccccc2)C(=O)[C@H](CCCCNC(=O)N(C)C[C@H](O)[C@@H](O)[C@H](O)[C@H](O)CO)NC(=O)[C@H](CC(=O)O)NC(=O)[C@H](Cc2ccncc2)NC(=O)[C@H](C(C)C)NC(=O)[C@H](CC(N)=O)NC(=O)[C@H](C(C)C)NC(=O)[C@H](C(C)C)NC(=O)[C@H](Cc2cccc3ccccc23)NC(=O)[C@H](Cc2ccccc2)NC(=O)CSC[C@@H](C(=O)NCC(N)=O)NC(=O)[C@H](CCCCNC(=O)N2CCN(CC(=O)O)CC2)NC(=O)[C@H](Cc2c[nH]cn2)NC(=O)[C@H](Cc2ccc(O)cc2)NC(=O)[C@H](Cc2cccc3ccccc23)NC1=O) [TGFb1_023] | – | – | – | – | – | – | – | – | – | – | SBE reporter % inhibition, peptide 0.062 nM [2]: 8.58%; SBE reporter % inhibition, peptide 0.185 nM [2]: 24.4%; SBE reporter % inhibition, peptide 0.56 nM [2]: 49.7%; SBE reporter % inhibition, peptide 1.7 nM [2]: 82.3%; SBE reporter % inhibition, peptide 5.0 nM [2]: 96%; SBE reporter % inhibition, peptide 15.0 nM [2]: 99.5%
9 | {CH2CO}-F[1Nal]VVNV[4Pal]DD[Gly(NCH2CH2Ph)]V[1Nal]YHVCG (thioether N-16; not fully specified (C-terminus), cyclic peptide; C-terminal G is a linker) [TGFb1_006] | – | – | – | – | – | – | – | – | – | – | SBE reporter % inhibition, peptide 0.075 nM [3]: 2.8%; SBE reporter % inhibition, peptide 0.75 nM [3]: 69.3%; SBE reporter % inhibition, peptide 7.5 nM [3]: 97.1%; SBE reporter % inhibition, peptide 75.0 nM [3]: 99.7%
